Test results as given in ChEMBL document CHEMBL1938312, “Design and combinatorial synthesis of a novel kinase-focused library using click chemistry-based fragment assembly” (Bioorg Med Chem Lett, 2012).
Active and inactive are the calls of the source. The calls are words filed in the database; no cut-off is given here.

Assays:
[1] = target: Serine/threonine-protein kinase PAK 4 (Homo sapiens) (UniProt O96013); test: Inhibition of PAK4 at 10 uM by colorimetric analysis
[2] = target: Cyclin-dependent kinase 2/cyclin A (Homo sapiens) (UniProt P24941+P20248+P78396); test: Inhibition of CDK2/CycA2 at 10 uM by colorimetric analysis; type: protein-complex assay
[3] = target: Insulin-like growth factor 1 receptor (Homo sapiens) (UniProt P08069); test: Inhibition of IGF1R at 10 uM by colorimetric analysis
[4] = target: Tyrosine-protein kinase Lck (Homo sapiens) (UniProt P06239); test: Inhibition of LCK at 10 uM by colorimetric analysis
[5] = target: Dual specificity tyrosine-phosphorylation-regulated kinase 1B (Homo sapiens) (UniProt Q9Y463); test: Inhibition of DYRK1B at 10 uM by colorimetric analysis
[6] = target: Casein kinase I isoform epsilon (Homo sapiens) (UniProt P49674); test: Inhibition of CK1epsilon at 10 uM by colorimetric analysis
[7] = target: Glycogen synthase kinase-3 beta (Homo sapiens, UniProt P49841); test: Inhibition of GSK3-beta by colorimetric analysis
[8] = target: Ephrin type-A receptor 2 (Homo sapiens) (UniProt P29317); test: Inhibition of EPHA2 at 10 uM by colorimetric analysis
[9] = target: MAP kinase-activated protein kinase 2 (Homo sapiens) (UniProt P49137); test: Inhibition of MAPKAPK2 at 10 uM by colorimetric analysis
[10] = target: Fibroblast growth factor receptor 1 (Homo sapiens) (UniProt P11362); test: Inhibition of FGFR1 at 10 uM by colorimetric analysis
[11] = target: Tyrosine-protein kinase SYK (Homo sapiens) (UniProt P43405); test: Inhibition of SYK at 10 uM by colorimetric analysis
[12] = target: T1, Ephrin type-B receptor 4 (Homo sapiens) (UniProt P54760); test: Inhibition of EPHB4 at 10 uM by colorimetric analysis
T1 sequence (whole entry): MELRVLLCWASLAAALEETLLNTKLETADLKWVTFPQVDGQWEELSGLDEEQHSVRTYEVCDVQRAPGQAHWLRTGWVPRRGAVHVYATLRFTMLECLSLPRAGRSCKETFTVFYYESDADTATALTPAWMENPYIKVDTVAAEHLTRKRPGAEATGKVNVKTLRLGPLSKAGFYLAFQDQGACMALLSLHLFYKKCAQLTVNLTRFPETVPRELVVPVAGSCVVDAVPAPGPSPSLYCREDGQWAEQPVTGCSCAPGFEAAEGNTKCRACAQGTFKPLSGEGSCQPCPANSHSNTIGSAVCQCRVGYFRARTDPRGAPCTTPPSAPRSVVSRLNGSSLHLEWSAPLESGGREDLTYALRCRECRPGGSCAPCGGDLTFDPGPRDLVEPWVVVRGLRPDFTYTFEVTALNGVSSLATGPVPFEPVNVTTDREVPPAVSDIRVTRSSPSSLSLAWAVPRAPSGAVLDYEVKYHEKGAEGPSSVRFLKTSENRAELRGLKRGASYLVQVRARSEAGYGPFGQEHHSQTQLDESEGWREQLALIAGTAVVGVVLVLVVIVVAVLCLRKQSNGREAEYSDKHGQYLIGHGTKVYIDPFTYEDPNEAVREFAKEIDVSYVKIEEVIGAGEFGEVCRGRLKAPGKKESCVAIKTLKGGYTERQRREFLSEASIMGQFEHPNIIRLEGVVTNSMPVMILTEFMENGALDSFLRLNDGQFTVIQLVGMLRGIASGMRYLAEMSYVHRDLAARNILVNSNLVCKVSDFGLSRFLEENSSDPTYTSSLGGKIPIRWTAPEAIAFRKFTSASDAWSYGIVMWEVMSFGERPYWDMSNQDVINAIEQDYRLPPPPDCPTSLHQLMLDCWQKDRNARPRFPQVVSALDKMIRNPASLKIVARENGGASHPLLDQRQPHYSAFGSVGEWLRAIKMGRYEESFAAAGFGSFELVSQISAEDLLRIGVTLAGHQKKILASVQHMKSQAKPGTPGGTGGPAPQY

Sequence of Fibroblast growth factor receptor 1 (Homo sapiens) (P11362 22-822 limits assumed): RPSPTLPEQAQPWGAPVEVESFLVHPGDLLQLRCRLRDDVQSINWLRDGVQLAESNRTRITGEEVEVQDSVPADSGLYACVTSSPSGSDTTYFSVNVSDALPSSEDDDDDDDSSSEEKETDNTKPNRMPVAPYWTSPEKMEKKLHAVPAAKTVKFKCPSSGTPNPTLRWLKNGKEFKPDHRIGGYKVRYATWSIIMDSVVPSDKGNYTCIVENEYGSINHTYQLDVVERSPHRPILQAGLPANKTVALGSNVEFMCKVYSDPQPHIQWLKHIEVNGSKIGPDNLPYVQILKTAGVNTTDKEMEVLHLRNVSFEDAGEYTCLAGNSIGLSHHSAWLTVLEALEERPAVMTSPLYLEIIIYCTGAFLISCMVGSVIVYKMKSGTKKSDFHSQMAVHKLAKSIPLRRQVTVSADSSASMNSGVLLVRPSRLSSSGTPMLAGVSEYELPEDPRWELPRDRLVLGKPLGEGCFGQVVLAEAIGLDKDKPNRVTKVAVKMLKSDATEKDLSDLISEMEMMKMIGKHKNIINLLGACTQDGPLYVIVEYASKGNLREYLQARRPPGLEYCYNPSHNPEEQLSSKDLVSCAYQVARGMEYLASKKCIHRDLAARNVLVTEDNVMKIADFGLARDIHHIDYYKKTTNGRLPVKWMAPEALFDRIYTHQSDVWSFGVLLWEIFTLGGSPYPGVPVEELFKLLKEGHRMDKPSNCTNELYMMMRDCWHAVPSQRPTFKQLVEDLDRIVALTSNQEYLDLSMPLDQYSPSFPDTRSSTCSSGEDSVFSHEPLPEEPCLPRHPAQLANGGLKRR
Sequence of Casein kinase I isoform epsilon (Homo sapiens) (P49674 whole entry, looked up, canonical isoform): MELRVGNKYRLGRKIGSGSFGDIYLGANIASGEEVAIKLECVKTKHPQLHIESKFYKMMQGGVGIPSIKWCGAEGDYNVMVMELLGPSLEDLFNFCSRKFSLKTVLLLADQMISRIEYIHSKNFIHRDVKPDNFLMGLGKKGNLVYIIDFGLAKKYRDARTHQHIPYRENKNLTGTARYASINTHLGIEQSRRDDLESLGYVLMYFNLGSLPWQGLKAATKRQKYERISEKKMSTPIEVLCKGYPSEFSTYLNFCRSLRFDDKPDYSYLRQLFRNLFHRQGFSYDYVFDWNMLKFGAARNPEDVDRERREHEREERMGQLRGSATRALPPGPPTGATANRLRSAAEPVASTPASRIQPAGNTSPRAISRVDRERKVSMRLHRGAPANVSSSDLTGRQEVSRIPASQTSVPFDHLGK
Sequence of Ephrin type-A receptor 2 (Homo sapiens) (P29317 whole entry): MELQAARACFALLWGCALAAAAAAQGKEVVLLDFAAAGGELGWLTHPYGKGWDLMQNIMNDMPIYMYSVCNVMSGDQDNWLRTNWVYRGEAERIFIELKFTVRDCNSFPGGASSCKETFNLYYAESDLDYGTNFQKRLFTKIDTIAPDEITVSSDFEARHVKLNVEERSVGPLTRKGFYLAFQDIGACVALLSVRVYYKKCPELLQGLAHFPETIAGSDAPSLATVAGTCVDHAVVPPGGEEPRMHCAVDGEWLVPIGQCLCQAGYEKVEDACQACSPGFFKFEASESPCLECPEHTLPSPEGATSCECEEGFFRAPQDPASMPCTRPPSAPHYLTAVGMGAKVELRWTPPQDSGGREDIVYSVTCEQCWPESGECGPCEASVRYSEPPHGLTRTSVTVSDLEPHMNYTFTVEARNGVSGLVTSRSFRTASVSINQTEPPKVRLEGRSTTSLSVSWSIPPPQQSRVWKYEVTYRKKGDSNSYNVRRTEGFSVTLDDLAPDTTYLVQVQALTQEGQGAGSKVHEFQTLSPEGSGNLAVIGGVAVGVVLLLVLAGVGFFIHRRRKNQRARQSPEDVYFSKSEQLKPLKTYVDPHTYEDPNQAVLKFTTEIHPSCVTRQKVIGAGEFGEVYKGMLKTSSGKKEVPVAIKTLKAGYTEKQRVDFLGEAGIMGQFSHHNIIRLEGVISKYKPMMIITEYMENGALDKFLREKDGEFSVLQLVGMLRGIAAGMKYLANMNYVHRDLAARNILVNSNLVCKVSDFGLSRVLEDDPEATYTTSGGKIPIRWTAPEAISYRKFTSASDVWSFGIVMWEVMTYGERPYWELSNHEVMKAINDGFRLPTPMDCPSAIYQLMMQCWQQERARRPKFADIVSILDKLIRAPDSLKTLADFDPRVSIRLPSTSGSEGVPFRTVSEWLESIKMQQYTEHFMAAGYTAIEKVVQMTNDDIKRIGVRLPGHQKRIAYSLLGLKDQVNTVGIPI
Sequence of Dual specificity tyrosine-phosphorylation-regulated kinase 1B (Homo sapiens) (Q9Y463 whole entry, looked up, canonical isoform): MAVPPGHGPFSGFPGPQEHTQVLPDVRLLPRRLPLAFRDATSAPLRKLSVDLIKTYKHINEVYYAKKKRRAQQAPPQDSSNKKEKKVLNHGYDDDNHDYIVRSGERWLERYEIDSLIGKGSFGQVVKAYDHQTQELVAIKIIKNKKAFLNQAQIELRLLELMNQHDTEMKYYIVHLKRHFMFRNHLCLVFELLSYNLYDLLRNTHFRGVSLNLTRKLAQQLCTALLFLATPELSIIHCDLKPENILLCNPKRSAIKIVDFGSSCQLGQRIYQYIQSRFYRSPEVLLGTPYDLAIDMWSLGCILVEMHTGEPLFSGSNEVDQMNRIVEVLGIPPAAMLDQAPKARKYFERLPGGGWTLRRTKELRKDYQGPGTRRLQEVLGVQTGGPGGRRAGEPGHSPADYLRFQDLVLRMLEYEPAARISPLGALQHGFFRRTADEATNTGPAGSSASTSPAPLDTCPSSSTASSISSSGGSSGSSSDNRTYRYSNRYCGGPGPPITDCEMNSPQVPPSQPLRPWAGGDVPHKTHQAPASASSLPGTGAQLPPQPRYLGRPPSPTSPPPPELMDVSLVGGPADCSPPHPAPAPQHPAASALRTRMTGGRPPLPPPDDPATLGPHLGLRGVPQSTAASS
Sequence of Tyrosine-protein kinase Lck (Homo sapiens) (P06239 2-509 limits assumed): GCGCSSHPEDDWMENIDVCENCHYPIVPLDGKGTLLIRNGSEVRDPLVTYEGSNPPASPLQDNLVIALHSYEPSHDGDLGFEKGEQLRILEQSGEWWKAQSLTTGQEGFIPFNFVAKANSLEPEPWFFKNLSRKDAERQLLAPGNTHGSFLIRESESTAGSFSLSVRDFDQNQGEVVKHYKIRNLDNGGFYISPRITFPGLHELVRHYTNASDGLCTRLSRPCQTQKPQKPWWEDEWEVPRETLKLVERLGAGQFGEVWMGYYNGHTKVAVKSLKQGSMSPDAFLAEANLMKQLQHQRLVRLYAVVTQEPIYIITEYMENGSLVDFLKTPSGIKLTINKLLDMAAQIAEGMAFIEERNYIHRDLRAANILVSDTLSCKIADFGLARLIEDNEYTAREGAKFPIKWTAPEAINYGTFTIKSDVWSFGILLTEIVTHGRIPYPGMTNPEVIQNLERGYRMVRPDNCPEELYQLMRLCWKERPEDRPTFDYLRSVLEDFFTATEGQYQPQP
Sequence of Insulin-like growth factor 1 receptor (Homo sapiens) (P08069 31-736 limits assumed): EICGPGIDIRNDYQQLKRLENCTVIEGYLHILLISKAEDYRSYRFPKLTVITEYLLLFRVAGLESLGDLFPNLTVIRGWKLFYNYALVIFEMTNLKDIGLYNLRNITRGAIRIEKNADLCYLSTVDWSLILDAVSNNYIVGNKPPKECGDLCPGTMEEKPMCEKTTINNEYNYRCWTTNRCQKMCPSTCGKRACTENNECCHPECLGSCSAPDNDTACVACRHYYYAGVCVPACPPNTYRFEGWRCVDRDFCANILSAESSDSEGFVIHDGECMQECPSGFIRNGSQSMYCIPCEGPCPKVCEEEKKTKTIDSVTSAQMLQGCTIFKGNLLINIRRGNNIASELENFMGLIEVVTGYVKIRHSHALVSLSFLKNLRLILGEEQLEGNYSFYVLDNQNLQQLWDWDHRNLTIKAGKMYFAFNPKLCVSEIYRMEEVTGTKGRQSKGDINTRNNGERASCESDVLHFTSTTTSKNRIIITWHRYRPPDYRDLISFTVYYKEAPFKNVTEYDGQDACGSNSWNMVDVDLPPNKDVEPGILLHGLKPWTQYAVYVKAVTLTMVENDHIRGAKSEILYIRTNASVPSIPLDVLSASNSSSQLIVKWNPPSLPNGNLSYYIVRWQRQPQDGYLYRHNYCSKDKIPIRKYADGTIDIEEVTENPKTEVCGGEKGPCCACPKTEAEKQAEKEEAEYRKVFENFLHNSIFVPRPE
Sequence of Insulin-like growth factor 1 receptor (Homo sapiens) (P08069 741-1367 limits assumed): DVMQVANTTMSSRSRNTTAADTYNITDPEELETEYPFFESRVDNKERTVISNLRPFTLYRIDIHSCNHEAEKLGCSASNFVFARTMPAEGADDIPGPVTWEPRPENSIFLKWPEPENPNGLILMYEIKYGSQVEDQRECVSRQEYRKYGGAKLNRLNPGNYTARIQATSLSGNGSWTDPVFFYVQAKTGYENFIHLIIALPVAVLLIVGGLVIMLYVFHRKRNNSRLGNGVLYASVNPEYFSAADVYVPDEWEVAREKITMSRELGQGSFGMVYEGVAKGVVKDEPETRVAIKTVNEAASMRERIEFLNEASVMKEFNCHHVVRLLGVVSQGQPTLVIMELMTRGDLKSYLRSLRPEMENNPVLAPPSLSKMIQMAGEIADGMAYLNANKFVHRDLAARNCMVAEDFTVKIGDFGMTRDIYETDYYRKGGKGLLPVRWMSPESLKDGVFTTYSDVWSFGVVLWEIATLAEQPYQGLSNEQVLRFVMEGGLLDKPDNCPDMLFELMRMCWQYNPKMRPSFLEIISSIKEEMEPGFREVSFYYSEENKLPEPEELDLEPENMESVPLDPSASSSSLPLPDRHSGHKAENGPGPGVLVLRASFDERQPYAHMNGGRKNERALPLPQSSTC

SMILES | inhibition [1] | inhibition [2] | inhibition [3] | inhibition [4] | inhibition [5] | inhibition [6] | IC50 [7] [µM] | inhibition [8] | inhibition [9] | inhibition [10] | inhibition [11] | inhibition [12]
Clc1cccc(-n2cc(-c3ccncc3)nn2)c1 | Active | Active | inactive | inactive | Active | Active | 1.8 | inactive | Active | inactive | inactive | inactive
Clc1ccc(-n2nncc2-c2ccncc2)cc1 | Active | Active | inactive | inactive | Active | Active | – | inactive | Active | inactive | inactive | inactive
Clc1ccc(-n2cc(-c3ccncc3)nn2)cc1 | Active | Active | inactive | inactive | Active | Active | 1.1 | inactive | Active | inactive | inactive | inactive
Clc1cccc(-n2nncc2-c2ccncc2)c1 | Active | Active | inactive | inactive | Active | Active | – | inactive | Active | inactive | inactive | inactive
